Data as given in patent publication US10793542B2, “Hetroarylamine compounds for modulating the hedgehog pathway and preparing method and uses thereof” (DEVELOPMENT CENTER FOR BIOTECHNOLOGY, priority 2016, dated 2020).

Assays:
Assay type in all cases: cell-based
[1] = test system: hedgehog pathway (pGL3-7xGli-Luciferase reporter in C3H10T1/2 cells); assay: Transient transfection of C3H10T1/2 and Gli-Luc reporter assay with SAG stimulation; details: Mus musculus, C3H 10T1/2, SAG 20 nM, 48 hr, read-out: Inhibition of Gli-Luc expression [IC50
Summary of the method: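 C3H10T1/2 cells were transiently transfected with a 7xGli-firefly luciferase reporter and a TK-Renilla control, then treated with serially diluted compounds plus 20 nM SAG in 0.5% FBS for 48 h at 37 °C. Firefly signal was normalized to Renilla and scaled between DMSO with SAG (100%) and without SAG (0%). IC50 was obtained by nonlinear regression.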

Smo wild type = biological target: T1, Smo wild type (Homo sapiens, UniProt Q99835); assay: Reporter assay of C3H10T1/2-Gli-Luc cells transfected with wild-type Smo, without SAG; details: C3H10T1/2 cells transfected with pLPCX-SMO, no SAG, 48 hr; read-out: Inhibition of C3H10T1/2-Gli-Luc-Smo-WT [IC50
T1 construct: expressed in transfected cells; host or cells: C3H10T1/2 cells (ATCC CCL-226), transient transfection with pLPCX-SMO
Summary of the method: (§1)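 C3H10T1/2-Gli-Luc cells transiently transfected with wild-type or D473H SMO, replated in 0.5% FBS RPMI and incubated with compounds 48 h at 37 °C without SAG. Dual-luciferase, firefly normalized to Renilla; scaled to DMSO (100%) and 10 μM ALLO-2 (0%); IC50 by nonlinear regression.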

Smo D473H mutant = biological target: T2, Smo D473H mutant (Homo sapiens, UniProt Q99835, D473H); assay: Reporter assay of C3H10T1/2-Gli-Luc cells transfected with Smo D473H mutant, without SAG; details: C3H10T1/2 cells transfected with pLPCX-SMO-D473H, no SAG, 48 hr; read-out: Inhibition of C3H10T1/2-Gli-Luc-Smo-D473H [IC50
T2 construct: expressed in transfected cells; host or cells: C3H10T1/2 cells (ATCC CCL-226), transient transfection with pLPCX-SMO-D473H
Summary of the method: as §1

T1 sequence (Q99835 28-787): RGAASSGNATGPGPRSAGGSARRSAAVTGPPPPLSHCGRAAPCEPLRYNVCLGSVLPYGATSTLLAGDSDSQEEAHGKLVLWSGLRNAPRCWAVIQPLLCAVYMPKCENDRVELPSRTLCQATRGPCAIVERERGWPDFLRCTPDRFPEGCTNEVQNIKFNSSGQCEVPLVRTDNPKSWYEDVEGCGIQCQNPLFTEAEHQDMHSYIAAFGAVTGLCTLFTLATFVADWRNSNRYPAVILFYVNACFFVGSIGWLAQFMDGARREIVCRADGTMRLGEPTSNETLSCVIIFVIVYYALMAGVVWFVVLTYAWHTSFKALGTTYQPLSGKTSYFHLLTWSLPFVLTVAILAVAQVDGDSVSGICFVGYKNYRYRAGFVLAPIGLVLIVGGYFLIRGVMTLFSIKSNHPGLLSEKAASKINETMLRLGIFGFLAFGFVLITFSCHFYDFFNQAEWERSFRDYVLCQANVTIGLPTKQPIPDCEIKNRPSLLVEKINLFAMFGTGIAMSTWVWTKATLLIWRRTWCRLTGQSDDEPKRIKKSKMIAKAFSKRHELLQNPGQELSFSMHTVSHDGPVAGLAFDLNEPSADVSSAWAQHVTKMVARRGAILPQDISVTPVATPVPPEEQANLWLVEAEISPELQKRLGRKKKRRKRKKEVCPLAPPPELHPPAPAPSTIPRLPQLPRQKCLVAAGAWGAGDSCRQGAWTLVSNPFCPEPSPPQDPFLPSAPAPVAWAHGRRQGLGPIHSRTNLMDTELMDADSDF
T2 sequence (Q99835 28-787 D473H): as the sequence (Q99835 28-787) above, with D446H counted along it

Row | Structure (SMILES) | IC50 [1] | IC50 (Smo wild type) | IC50 (Smo D473H mutant)
1 | CSc1cnc(Nc2ccc(C(=O)Nc3cc(CN4CCOCC4)ccc3C)cc2)cc1-c1ccc(OC(F)(F)F)cc1 [Compound 81, N-(2-Methyl-5-morpholin-4-ylmethyl-phenyl)-4-[5-methylsulfanyl-4-(4-trifluoromethoxy-phenyl)-pyridin-2-ylamino)-benzamide] | < 0.1 µM | < 0.1 µM | < 0.1 µM
2 | CSc1cnc(Nc2ccc(C(=O)Nc3cc(CN4CCN(C)CC4)ccc3C)cc2)cc1-c1ccc(OC(F)(F)F)cc1 [Compound 82, N-[2-Methyl-5-(4-methyl-piperazin-1-ylmethyl)-phenyl]-4-[5-methylsulfanyl-4-(4-trifluoromethoxy-phenyl)-pyridin-2-ylamino]-benzamide] | < 0.1 µM | < 0.1 µM | < 0.1 µM
3 | CSc1cnc(Nc2ccc(C(=O)Nc3cc(CN(C)C)ccc3C)cc2)cc1-c1ccc(OC(F)(F)F)cc1 [Compound 83, N-(5-Dimethylaminomethyl-2-methyl-phenyl)-4-[5-methylsulfanyl-4-(4-trifluoromethoxy-phenyl)-pyridin-2-ylamino]-benzamide] | < 0.1 µM | < 0.1 µM | < 0.1 µM
4 | CSc1cnc(Nc2ccc(C(=O)Nc3cc(CN4CCOCC4)ccc3C)cc2)cc1-c1ccc(F)cc1 [Compound 84, 4-((4-(4-fluorophenyl)-5-(methylthio)pyridin-2-yl)amino)-N-(2-methyl-5-(morpholinomethyl)phenyl)benzamide] | < 0.1 µM | < 0.1 µM | 0.1 to 1 µM
5 | CCN(CC)Cc1ccc(C)c(NC(=O)c2ccc(Nc3cc(-c4ccc(OC(F)(F)F)cc4)c(SC)cn3)cc2)c1 [Compound 87, N-(5-((diethylamino)methyl)-2-methylphenyl)-4-((5-(methylthio)-4-(4-(trifluoromethoxy)phenyl)pyridin-2-yl)amino)benzamide] | < 0.1 µM | < 0.1 µM | < 0.1 µM
6 | CSc1cnc(Nc2ccc(C(=O)Nc3cc(CN4CCN(C)CC4)ccc3C)cc2)cc1-c1ccc(F)cc1 [Compound 89, 4-((4-(4-fluorophenyl)-5-(methylthio)pyridin-2-yl)amino)-N-(2-methyl-5-((4-methylpiperazin-1-yl)methyl)phenyl)benzamide] | < 0.1 µM | < 0.1 µM | 0.1 to 1 µM
7 | CSc1cnc(Nc2ccc(C(=O)Nc3cc(CN4CCN(C)CC4)ccc3C)cc2)cc1-c1ccc(C(F)(F)F)cc1 [Compound 90, N-(2-methyl-5-((4-methylpiperazin-1-yl)methyl)phenyl)-4-((5-(methylthio)-4-(4-(trifluoromethyl)phenyl)pyridin-2-yl)amino)benzamide] | < 0.1 µM | < 0.1 µM | 0.1 to 1 µM

Second part, the compound after the results:

Row | IC50 [1] | IC50 (Smo wild type) | IC50 (Smo D473H mutant) | Structure (SMILES)
8 | 0.1 to 1 µM | 0.1 to 1 µM | 0.1 to 1 µM | CSc1cnc(Nc2ccc(C(=O)Nc3cc(CN4CCNCC4)ccc3C)cc2F)nc1-c1ccc(F)cc1 [Compound 78, 3-Fluoro-4-[4-(4-fluoro-phenyl)-5-methylsulfanyl-pyrimidin-2-ylamino]-N-(2-methyl-5-piperazin-1-ylmethyl-phenyl)-benzamide]
9 | < 0.1 µM | 0.1 to 1 µM | 0.1 to 1 µM | COc1cnc(Nc2ccc(C(=O)Nc3cc(CN4CCNCC4)ccc3C)cc2)nc1-c1ccc(F)cc1 [Compound 79, 4-[4-(4-Fluoro-phenyl)-5-methoxy-pyrimidin-2-ylamino]-N-(2-methyl-5-piperazin-1-ylmethyl-phenyl)-benzamide]
10 | < 0.1 µM | 0.1 to 1 µM | 0.1 to 1 µM | COc1cnc(Nc2ccc(C(=O)Nc3cc(CN4CCNCC4)ccc3C)cc2F)nc1-c1ccc(F)cc1 [Compound 80, 3-Fluoro-4-[4-(4-fluoro-phenyl)-5-methoxy-pyrimidin-2-ylamino]-N-(2-methyl-5-piperazin-1-ylmethyl-phenyl)-benzamide]
11 | < 0.1 µM | < 0.1 µM | < 0.1 µM | Cc1ccc(CN2CCOCC2)cc1NC(=O)c1ccc(Nc2ncc([S+](C)[O-])c(-c3ccc(OC(F)(F)F)cc3)n2)cc1 (stereo not drawn) [Compound 85, 4-[5-Methanesulfinyl-4-(4-trifluoromethoxy-phenyl)-pyrimidin-2-ylamino]-N-(2-methyl-5-morpholin-4-ylmethyl-phenyl)-benzamide]
12 | < 0.1 µM | < 0.1 µM | < 0.1 µM | Cc1ccc(CN2CCOCC2)cc1NC(=O)c1ccc(Nc2ncc(N)c(-c3ccc(OC(F)(F)F)cc3)n2)cc1 [Compound 88, 4-((5-amino-4-(4-(trifluoromethoxy)phenyl)pyrimidin-2-yl)amino)-N-(2-methyl-5-(morpholinomethyl)phenyl)benzamide]
13 | < 0.1 µM | < 0.1 µM | < 0.1 µM | CNc1cnc(Nc2ccc(C(=O)Nc3cc(CN4CCOCC4)ccc3C)cc2)nc1-c1ccc(OC(F)(F)F)cc1 [Compound 91, N-(2-methyl-5-(morpholinomethyl)phenyl)-4-((5-(methylamino)-4-(4-(trifluoromethoxy)phenyl)pyrimidin-2-yl)amino)benzamide]
